Test results taken from PMC8772704, “Quantification of Fosfomycin in Combination with Nine Antibiotics in Human Plasma and Cation-Adjusted Mueller-Hinton II Broth via LCMS” (Antibiotics, 2022).

What was measured:
[1] = Long-term storage stability of antibiotics in combination with fosfomycin spiked in plasma/CAMHB (−30 °C, −80 °C); type: physicochemical; conditions: combination with fosfomycin; for Mean accuracy (%), Table S15 / Mean accuracy (%), Table S17 / Mean accuracy (%), Table S16 / Mean accuracy (%), Table S18: CAMHB; for Mean accuracy (%), Table S15 / Mean accuracy (%), Table S11: 2 weeks at -30 °C; for Mean accuracy (%), Table S17 / Mean accuracy (%), Table S13: 2 weeks at -80 °C; for Mean accuracy (%), Table S16 / Mean accuracy (%), Table S12: 4 weeks at -30 °C; for Mean accuracy (%), Table S18 / Mean accuracy (%), Table S14: 4 weeks at -80 °C; for Mean accuracy (%), Table S11 / Mean accuracy (%), Table S13 / Mean accuracy (%), Table S12 / Mean accuracy (%), Table S14: plasma
Method: (§1) The stability of fosfomycin in combination with other antibiotics in plasma/CAMHB was evaluated under various operational conditions. Spiked plasma/CAMHB samples were evaluated at 7 h and 15 h in the autosampler at 4 °C. Long-term stability was evaluated up to 4 weeks of antibiotic-spiked plasma/CAMHB samples at LQC, MQC, and HQC concentrations stored at −30 °C and −80 °C.

[2] = 32-day stability of stock solutions stored at −80 °C; type: physicochemical; conditions: stock solution stored at -80 °C; peak area Day 32 vs Day 1
Method: Stability of stock solutions
All stock solutions of antibiotics and their corresponding stable-isotope variants were measured prior to cold storage at -80 °C and tested at 32 days later.
Stability was determined by comparing the peak area of each drug between its Day 1 and Day 32 measurement. Acceptable criteria for stability was met if the […]

[3] = Autosampler stability at 4 °C of extracted antibiotic-spiked plasma/CAMHB samples; conditions: for Mean accuracy (%), Table S8 / Mean accuracy (%), Table S10: CAMHB extracted samples; for Mean accuracy (%), Table S8 / Mean accuracy (%), Table S7: 7 h autosampler 4 °C; for Mean accuracy (%), Table S10 / Mean accuracy (%), Table S9: 15 h autosampler 4 °C; for Mean accuracy (%), Table S7 / Mean accuracy (%), Table S9: plasma extracted samples
Method: as §1

[4] = HQC: nominal mg/L CAZ 150, FEP 200, PIP 250, ATM 300, MEM 200, DOR 175, LVX 30, CEFT 250, TZB 87.5, TGC 20, AVI 30, FOF 1000
[5] = LQC: nominal 1 mg/L (levofloxacin, avibactam 0.5; fosfomycin 10)
[6] = MQC: nominal mg/L CAZ 75, FEP 100, PIP 150, ATM 150, MEM 100, DOR 87.5, LVX 15, CEFT 125, TZB 43.75, TGC 10, AVI 15, FOF 500

| Structure (SMILES) | Mean accuracy (%), Table S15 ([1]; HQC (nominal as E15)) [%] | Mean accuracy (%), Table S15 ([1]; LQC (nominal as E13)) [%] | Mean accuracy (%), Table S15 ([1]; MQC (nominal as E14)) [%] | Mean accuracy (%), Table S17 ([1]; HQC (nominal as E15)) [%] | Mean accuracy (%), Table S17 ([1]; LQC (nominal as E13)) [%] | Mean accuracy (%), Table S17 ([1]; MQC (nominal as E14)) [%] | Mean accuracy (%), Table S16 ([1]; HQC (nominal as E15)) [%] | Mean accuracy (%), Table S16 ([1]; LQC (nominal as E13)) [%] | Mean accuracy (%), Table S16 ([1]; MQC (nominal as E14)) [%] | Mean accuracy (%), Table S18 ([1]; HQC (nominal as E15)) [%] | Mean accuracy (%), Table S18 ([1]; LQC (nominal as E13)) [%] | Mean accuracy (%), Table S18 ([1]; MQC (nominal as E14)) [%] | Mean accuracy (%), Table S11 ([1]; HQC (nominal as E15)) [%] | Mean accuracy (%), Table S11 ([1]; LQC (nominal as E13)) [%] | Mean accuracy (%), Table S11 ([1]; MQC (nominal as E14)) [%] | Mean accuracy (%), Table S13 ([1]; HQC (nominal as E15)) [%] | Mean accuracy (%), Table S13 ([1]; LQC (nominal as E13)) [%] | Mean accuracy (%), Table S13 ([1]; MQC (nominal as E14)) [%] | Mean accuracy (%), Table S12 ([1]; HQC (nominal as E15)) [%] | Mean accuracy (%), Table S12 ([1]; LQC (nominal as E13)) [%] | other results |
| --- | --- | --- | --- | --- | --- | --- | --- | --- | --- | --- | --- | --- | --- | --- | --- | --- | --- | --- | --- | --- | --- |
| CC(C)(O/N=C(\C(=O)N[C@@H]1C(=O)N2C(C(=O)[O-])=C(C[n+]3ccccc3)CS[C@H]12)c1csc(N)n1)C(=O)O [Ceftazidime, ceftazidime] | 97.6 | 99.2 | 106.0 | 103.0 | 104.3 | 105.2 | 100.5 | 105.0 | 100.4 | 103.8 | 103.5 | 106.4 | 99.5 | 97.8 | 105.0 | 99.4 | 102.6 | 101.0 | 100.3 | 100.3 | Mean accuracy (%), Table S12 ([1]; MQC (nominal as E14)): 105.0%; Mean accuracy (%), Table S14 ([1]; HQC (nominal as E15)): 107.7%; Mean accuracy (%), Table S14 ([1]; LQC (nominal as E13)): 98.8%; Mean accuracy (%), Table S14 ([1]; MQC (nominal as E14)): 103.0%; 32 Day Stability (%) [2]: 101.73%; Mean accuracy (%), Table S8 ([3]; HQC (nominal as E15)): 109.2%; Mean accuracy (%), Table S8 ([3]; LQC (nominal as E13)): 110.0%; Mean accuracy (%), Table S8 ([3]; MQC (nominal as E14)): 109.0%; Mean accuracy (%), Table S10 ([3]; HQC (nominal as E15)): 112.0%; Mean accuracy (%), Table S10 ([3]; LQC (nominal as E13)): 107.7%; Mean accuracy (%), Table S10 ([3]; MQC (nominal as E14)): 111.0%; Mean accuracy (%), Table S7 [3, 4]: 109.6%; Mean accuracy (%), Table S7 [3, 5]: 94.9%; Mean accuracy (%), Table S7 [3, 6]: 112.0%; Mean accuracy (%), Table S9 ([3]; HQC (nominal as E15)): 113.1%; Mean accuracy (%), Table S9 ([3]; LQC (nominal as E13)): 93.8%; Mean accuracy (%), Table S9 ([3]; MQC (nominal as E14)): 111.5% |
| CN(C)c1cc(NC(=O)CNC(C)(C)C)c(O)c2c1C[C@H]1C[C@H]3[C@H](N(C)C)C(O)=C(C(N)=O)C(=O)[C@@]3(O)C(O)=C1C2=O [Tigecycline, tigecycline] | 87.2 | 98.8 | 87.3 | 102.3 | 98.9 | 106.1 | 91.2 | 87.0 | 100.6 | 91.0 | 87.6 | 95.3 | 102.5 | 111.9 | 98.9 | 107.8 | 109.8 | 100.1 | 110.7 | 97.8 | Mean accuracy (%), Table S12 ([1]; MQC (nominal as E14)): 102.8%; Mean accuracy (%), Table S14 ([1]; HQC (nominal as E15)): 112.3%; Mean accuracy (%), Table S14 ([1]; LQC (nominal as E13)): 96.9%; Mean accuracy (%), Table S14 ([1]; MQC (nominal as E14)): 105.0%; 32 Day Stability (%) [2]: 102.57%; Mean accuracy (%), Table S8 ([3]; HQC (nominal as E15)): 103.5%; Mean accuracy (%), Table S8 ([3]; LQC (nominal as E13)): 100.6%; Mean accuracy (%), Table S8 ([3]; MQC (nominal as E14)): 103.1%; Mean accuracy (%), Table S10 ([3]; HQC (nominal as E15)): 103.2%; Mean accuracy (%), Table S10 ([3]; LQC (nominal as E13)): 101.8%; Mean accuracy (%), Table S10 ([3]; MQC (nominal as E14)): 100.2%; Mean accuracy (%), Table S7 [3, 4]: 110.0%; Mean accuracy (%), Table S7 [3, 5]: 106.7%; Mean accuracy (%), Table S7 [3, 6]: 112.7%; Mean accuracy (%), Table S9 ([3]; HQC (nominal as E15)): 111.0%; Mean accuracy (%), Table S9 ([3]; LQC (nominal as E13)): 105.1%; Mean accuracy (%), Table S9 ([3]; MQC (nominal as E14)): 106.3% |
